Test: molar heat capacity at constant volume; xn = mol fraction of the nth substance listed
Details: x1 = 0.2607

N [ammonia] + O
Details	molar heat capacity at constant volume [J/K/mol]
597.59 K, Fluid (supercritical or subcritical phases), Mass density=342.18 kg/m3, isochoric heat capacity	106.69
597.6 K, Fluid (supercritical or subcritical phases), Mass density=160.07 kg/m3, isochoric heat capacity	66.86
597.67 K, Fluid (supercritical or subcritical phases), Mass density=342.18 kg/m3, isochoric heat capacity	101.08
597.68 K, Fluid (supercritical or subcritical phases), Mass density=376.89 kg/m3, isochoric heat capacity	88.28
597.69 K, Fluid (supercritical or subcritical phases), Mass density=160.07 kg/m3, isochoric heat capacity	65.49
597.76 K, Fluid (supercritical or subcritical phases), Mass density=342.18 kg/m3, isochoric heat capacity	93.62
597.85 K, Fluid (supercritical or subcritical phases), Mass density=342.18 kg/m3, isochoric heat capacity	99.13
597.93 K, Fluid (supercritical or subcritical phases), Mass density=342.18 kg/m3, isochoric heat capacity	94.33
597.93 K, Fluid (supercritical or subcritical phases), Mass density=376.89 kg/m3, isochoric heat capacity	82.42
598.02 K, Fluid (supercritical or subcritical phases), Mass density=342.18 kg/m3, isochoric heat capacity	93.02
598.28 K, Fluid (supercritical or subcritical phases), Mass density=376.89 kg/m3, isochoric heat capacity	83.59
598.33 K, Fluid (supercritical or subcritical phases), Mass density=329 kg/m3, isochoric heat capacity	117.38
598.33 K, Liquid, Isochoric heat capacity	117.38
598.45 K, Fluid (supercritical or subcritical phases), Mass density=329 kg/m3, isochoric heat capacity	113.21
598.54 K, Fluid (supercritical or subcritical phases), Mass density=329 kg/m3, isochoric heat capacity	109.57
598.71 K, Fluid (supercritical or subcritical phases), Mass density=329 kg/m3, isochoric heat capacity	102.77
598.96 K, Fluid (supercritical or subcritical phases), Mass density=320.33 kg/m3, isochoric heat capacity	120.79
598.96 K, Liquid, Isochoric heat capacity	120.79
598.97 K, Fluid (supercritical or subcritical phases), Mass density=376.89 kg/m3, isochoric heat capacity	81.57
598.98 K, Fluid (supercritical or subcritical phases), Mass density=160.07 kg/m3, isochoric heat capacity	58.27
599.05 K, Fluid (supercritical or subcritical phases), Mass density=320.33 kg/m3, isochoric heat capacity	119.07
599.05 K, Fluid (supercritical or subcritical phases), Mass density=329 kg/m3, isochoric heat capacity	107.4
599.12 K, Fluid (supercritical or subcritical phases), Mass density=160.07 kg/m3, isochoric heat capacity	56.88
599.14 K, Fluid (supercritical or subcritical phases), Mass density=320.33 kg/m3, isochoric heat capacity	116.6
599.22 K, Fluid (supercritical or subcritical phases), Mass density=320.33 kg/m3, isochoric heat capacity	116.48
599.22 K, Fluid (supercritical or subcritical phases), Mass density=329 kg/m3, isochoric heat capacity	100.28
599.24 K, Fluid (supercritical or subcritical phases), Mass density=160.07 kg/m3, isochoric heat capacity	59.53
599.28 K, Fluid (supercritical or subcritical phases), Mass density=160.07 kg/m3, isochoric heat capacity	57.43
599.31 K, Fluid (supercritical or subcritical phases), Mass density=320.33 kg/m3, isochoric heat capacity	114.22
599.31 K, Fluid (supercritical or subcritical phases), Mass density=329 kg/m3, isochoric heat capacity	97.19
599.31 K, Fluid (supercritical or subcritical phases), Mass density=456.58 kg/m3, isochoric heat capacity	67.32
599.39 K, Fluid (supercritical or subcritical phases), Mass density=320.33 kg/m3, isochoric heat capacity	116.94
599.42 K, Fluid (supercritical or subcritical phases), Mass density=312.91 kg/m3, isochoric heat capacity	124.13
599.42 K, Liquid, Isochoric heat capacity	124.13
599.48 K, Fluid (supercritical or subcritical phases), Mass density=312.91 kg/m3, isochoric heat capacity	116.5
599.48 K, Fluid (supercritical or subcritical phases), Mass density=456.58 kg/m3, isochoric heat capacity	66.88
599.57 K, Fluid (supercritical or subcritical phases), Mass density=311.19 kg/m3, isochoric heat capacity	125.38
599.57 K, Fluid (supercritical or subcritical phases), Mass density=312.91 kg/m3, isochoric heat capacity	107.92
599.57 K, Liquid, Isochoric heat capacity	125.38
599.63 K, Fluid (supercritical or subcritical phases), Mass density=311.19 kg/m3, isochoric heat capacity	116.92
599.65 K, Fluid (supercritical or subcritical phases), Mass density=312.91 kg/m3, isochoric heat capacity	98.79
599.65 K, Fluid (supercritical or subcritical phases), Mass density=456.58 kg/m3, isochoric heat capacity	66.45
599.67 K, Fluid (supercritical or subcritical phases), Mass density=309.95 kg/m3, isochoric heat capacity	126.26
599.67 K, Liquid, Isochoric heat capacity	126.26
599.74 K, Fluid (supercritical or subcritical phases), Mass density=309.95 kg/m3, isochoric heat capacity	122.91
599.74 K, Fluid (supercritical or subcritical phases), Mass density=311.19 kg/m3, isochoric heat capacity	119.75
599.74 K, Fluid (supercritical or subcritical phases), Mass density=312.91 kg/m3, isochoric heat capacity	95.52
599.78 K, Fluid (supercritical or subcritical phases), Mass density=308.35 kg/m3, isochoric heat capacity	124.13
599.78 K, Fluid (supercritical or subcritical phases), Mass density=309.95 kg/m3, isochoric heat capacity	120.4
599.78 K, Liquid, Isochoric heat capacity	124.13
599.82 K, Fluid (supercritical or subcritical phases), Mass density=309.95 kg/m3, isochoric heat capacity	110.51
599.82 K, Fluid (supercritical or subcritical phases), Mass density=311.19 kg/m3, isochoric heat capacity	114.13
599.82 K, Fluid (supercritical or subcritical phases), Mass density=456.58 kg/m3, isochoric heat capacity	66.86
599.89 K, Fluid (supercritical or subcritical phases), Mass density=307.35 kg/m3, isochoric heat capacity	121.11
599.89 K, Liquid, Isochoric heat capacity	121.11
599.91 K, Fluid (supercritical or subcritical phases), Mass density=308.35 kg/m3, isochoric heat capacity	117.6
599.91 K, Fluid (supercritical or subcritical phases), Mass density=309.95 kg/m3, isochoric heat capacity	104.19
599.99 K, Fluid (supercritical or subcritical phases), Mass density=307.35 kg/m3, isochoric heat capacity	117.17
599.99 K, Fluid (supercritical or subcritical phases), Mass density=308.35 kg/m3, isochoric heat capacity	105.88
599.99 K, Fluid (supercritical or subcritical phases), Mass density=309.95 kg/m3, isochoric heat capacity	102.57
599.99 K, Fluid (supercritical or subcritical phases), Mass density=312.91 kg/m3, isochoric heat capacity	91.51
600.02 K, Fluid (supercritical or subcritical phases), Mass density=305.44 kg/m3, isochoric heat capacity	119.52
600.02 K, Liquid, Isochoric heat capacity	119.52
600.08 K, Fluid (supercritical or subcritical phases), Mass density=305.44 kg/m3, isochoric heat capacity	116.14
600.08 K, Fluid (supercritical or subcritical phases), Mass density=307.35 kg/m3, isochoric heat capacity	103.34
600.08 K, Fluid (supercritical or subcritical phases), Mass density=308.35 kg/m3, isochoric heat capacity	100.97
600.16 K, Fluid (supercritical or subcritical phases), Mass density=307.35 kg/m3, isochoric heat capacity	101.06
600.17 K, Fluid (supercritical or subcritical phases), Mass density=303.47 kg/m3, isochoric heat capacity	117.74
600.17 K, Fluid (supercritical or subcritical phases), Mass density=305.44 kg/m3, isochoric heat capacity	107.85
600.17 K, Fluid (supercritical or subcritical phases), Mass density=308.35 kg/m3, isochoric heat capacity	93.64
600.17 K, Liquid, Isochoric heat capacity	118.63
600.25 K, Fluid (supercritical or subcritical phases), Mass density=303.47 kg/m3, isochoric heat capacity	110.49
600.25 K, Fluid (supercritical or subcritical phases), Mass density=305.44 kg/m3, isochoric heat capacity	102.54
600.29 K, Fluid (supercritical or subcritical phases), Mass density=301.94 kg/m3, isochoric heat capacity	117.56
600.29 K, Liquid, Isochoric heat capacity	117.56
600.33 K, Fluid (supercritical or subcritical phases), Mass density=301.94 kg/m3, isochoric heat capacity	111.7
600.34 K, Fluid (supercritical or subcritical phases), Mass density=303.47 kg/m3, isochoric heat capacity	104.01
600.34 K, Fluid (supercritical or subcritical phases), Mass density=305.44 kg/m3, isochoric heat capacity	105.13
600.35 K, Fluid (supercritical or subcritical phases), Mass density=309.95 kg/m3, isochoric heat capacity	100.02
600.42 K, Fluid (supercritical or subcritical phases), Mass density=303.47 kg/m3, isochoric heat capacity	98.88
600.42 K, Fluid (supercritical or subcritical phases), Mass density=305.44 kg/m3, isochoric heat capacity	97.9
